Assay results from the NIST ThermoML archive (doi:10.1016/j.jct.2016.10.034).
± gives the expanded uncertainty stated by the source.

Experiment: xn = mol fraction of the nth substance listed
Details: 100 kPa, Liquid; for viscosity: Falling or rolling sphere viscometry; for mass density: Vibrating tube method

CC(=O)[O-].CC[N+]1(C)CCCC1 [1-ethyl-1-methylpyrrolidinium acetate] + O
Details	mass density [kg/m3]	viscosity [mPa·s]
298.15 K, x1 = 0.1008	1046.6 ± 1.1	6.95 ± 0.7
298.15 K, x1 = 0.2083	1066.7 ± 1	16.9 ± 1.7
298.15 K, x1 = 0.3171	1070.7 ± 1	29 ± 2.9
298.15 K, x1 = 0.4126	1070.8 ± 1.1	41.1 ± 4.1
298.15 K, x1 = 0.481	1070.2 ± 1.1	50.9 ± 5.1
298.15 K, x1 = 0.5857	1069.2 ± 1.2	69.3 ± 7
298.15 K, x1 = 0.6728	1068.1 ± 1.4	88.3 ± 9
298.15 K, x1 = 0.766	1066.9 ± 1.6	116 ± 12
298.15 K, x1 = 0.8963	1065.4 ± 1.9	173 ± 19
303.15 K, x1 = 0.1008	1043.6 ± 1	5.96 ± 0.6
303.15 K, x1 = 0.2083	1063.6 ± 1	14.2 ± 1.4
303.15 K, x1 = 0.3171	1067.6 ± 1	24.2 ± 2.4
303.15 K, x1 = 0.4126	1067.8 ± 1.1	34.5 ± 3.5
303.15 K, x1 = 0.481	1067.2 ± 1.1	42.8 ± 4.3
303.15 K, x1 = 0.5857	1066.3 ± 1.2	57.2 ± 5.8
303.15 K, x1 = 0.6728	1065.3 ± 1.4	71.4 ± 7.2
303.15 K, x1 = 0.766	1064 ± 1.6	91.3 ± 9.4
303.15 K, x1 = 0.8963	1062.5 ± 1.9	134 ± 14
308.15 K, x1 = 0.1008	1040.7 ± 1	5.32 ± 0.53
308.15 K, x1 = 0.2083	1060.3 ± 1	11.9 ± 1.2
308.15 K, x1 = 0.3171	1064.5 ± 1	19.7 ± 2
308.15 K, x1 = 0.4126	1064.8 ± 1.1	28 ± 2.8
308.15 K, x1 = 0.481	1064.2 ± 1.1	35.1 ± 3.5
308.15 K, x1 = 0.5857	1063.1 ± 1.2	46.7 ± 4.7
308.15 K, x1 = 0.6728	1062.2 ± 1.4	57.6 ± 5.8
308.15 K, x1 = 0.766	1060.7 ± 1.5	74.2 ± 7.5
308.15 K, x1 = 0.8963	1059.4 ± 1.9	107 ± 11
313.15 K, x1 = 0.1008	1037.7 ± 1	4.77 ± 0.48
313.15 K, x1 = 0.2083	1057.1 ± 1	10.6 ± 1.1
313.15 K, x1 = 0.3171	1061.4 ± 1	16.9 ± 1.7
313.15 K, x1 = 0.4126	1061.8 ± 1.1	23.5 ± 2.4
313.15 K, x1 = 0.481	1061.3 ± 1.1	28.9 ± 2.9
313.15 K, x1 = 0.5857	1060.4 ± 1.2	38.7 ± 3.9
313.15 K, x1 = 0.6728	1059.4 ± 1.4	48.5 ± 4.9
313.15 K, x1 = 0.766	1057.9 ± 1.5	62.8 ± 6.4
313.15 K, x1 = 0.8963	1056.6 ± 1.9	88.5 ± 9.1
318.15 K, x1 = 0.1008	1034.6 ± 1	4.3 ± 0.43
318.15 K, x1 = 0.2083	1053.8 ± 1	9.09 ± 0.91
318.15 K, x1 = 0.3171	1058.2 ± 1	14 ± 1.4
318.15 K, x1 = 0.4126	1058.7 ± 1.1	19.7 ± 2
318.15 K, x1 = 0.481	1058.3 ± 1.1	23.6 ± 2.4
318.15 K, x1 = 0.5857	1057.5 ± 1.2	30.3 ± 3.1
318.15 K, x1 = 0.6728	1056.6 ± 1.4	38.4 ± 3.9
318.15 K, x1 = 0.766	1055 ± 1.5	51.4 ± 5.2
318.15 K, x1 = 0.8963	1053.7 ± 1.9	70.8 ± 7.2
323.15 K, x1 = 0.1008	1031.5 ± 1	3.87 ± 0.39
323.15 K, x1 = 0.2083	1050.5 ± 1	7.91 ± 0.79
323.15 K, x1 = 0.3171	1055.1 ± 1	11.6 ± 1.2
323.15 K, x1 = 0.4126	1055.7 ± 1.1	16 ± 1.6
323.15 K, x1 = 0.481	1055.3 ± 1.1	19.8 ± 2
323.15 K, x1 = 0.5857	1054.5 ± 1.2	26.2 ± 2.6
323.15 K, x1 = 0.6728	1053.6 ± 1.4	32.7 ± 3.3
323.15 K, x1 = 0.766	1052.2 ± 1.5	42.5 ± 4.3
323.15 K, x1 = 0.8963	1050.9 ± 1.8	58 ± 5.9
328.15 K, x1 = 0.1008	1028.3 ± 1	3.523 ± 0.35
328.15 K, x1 = 0.2083	1047.2 ± 1	6.81 ± 0.68
328.15 K, x1 = 0.3171	1051.9 ± 1	10 ± 1
328.15 K, x1 = 0.4126	1052.6 ± 1.1	13.5 ± 1.4
328.15 K, x1 = 0.481	1052.3 ± 1.1	15.8 ± 1.6
328.15 K, x1 = 0.5857	1051.6 ± 1.2	21.2 ± 2.1
328.15 K, x1 = 0.6728	1050.7 ± 1.4	28 ± 2.8
328.15 K, x1 = 0.766	1049.3 ± 1.5	35.2 ± 3.6
328.15 K, x1 = 0.8963	1048 ± 1.8	48 ± 4.9
333.15 K, x1 = 0.1008	1025.1 ± 1	3.21 ± 0.32
333.15 K, x1 = 0.2083	1043.8 ± 1	6.14 ± 0.62
333.15 K, x1 = 0.3171	1048.7 ± 1	8.67 ± 0.87
333.15 K, x1 = 0.4126	1049.5 ± 1.1	11.5 ± 1.2
333.15 K, x1 = 0.481	1049.3 ± 1.1	13.5 ± 1.4
333.15 K, x1 = 0.5857	1048.5 ± 1.2	18.1 ± 1.8
333.15 K, x1 = 0.6728	1047.7 ± 1.3	23.2 ± 2.3
333.15 K, x1 = 0.766	1046.2 ± 1.5	29.1 ± 2.9
333.15 K, x1 = 0.8963	1045 ± 1.8	39.5 ± 4
338.15 K, x1 = 0.1008	1021.8 ± 1	2.94 ± 0.3
338.15 K, x1 = 0.2083	1040.5 ± 1	5.49 ± 0.55
338.15 K, x1 = 0.3171	1045.5 ± 1	7.52 ± 0.76
338.15 K, x1 = 0.4126	1046.4 ± 1.1	9.88 ± 0.99
338.15 K, x1 = 0.481	1046.2 ± 1.1	11.6 ± 1.2
338.15 K, x1 = 0.5857	1045.6 ± 1.2	15.4 ± 1.6
338.15 K, x1 = 0.6728	1044.9 ± 1.3	19.8 ± 2
338.15 K, x1 = 0.766	1043.5 ± 1.5	24.6 ± 2.5
338.15 K, x1 = 0.8963	1042.3 ± 1.8	32.6 ± 3.3
343.15 K, x1 = 0.1008	1018.5 ± 1	2.65 ± 0.27
343.15 K, x1 = 0.2083	1037.1 ± 1	4.78 ± 0.48
343.15 K, x1 = 0.3171	1042.2 ± 1	6.72 ± 0.68
343.15 K, x1 = 0.4126	1043.3 ± 1.1	8.58 ± 0.86
343.15 K, x1 = 0.481	1043.2 ± 1.1	10.1 ± 1
343.15 K, x1 = 0.5857	1042.6 ± 1.2	13.1 ± 1.3
343.15 K, x1 = 0.6728	1041.9 ± 1.3	16.9 ± 1.7
343.15 K, x1 = 0.766	1040.5 ± 1.5	20.9 ± 2.1
343.15 K, x1 = 0.8963	1039.3 ± 1.8	27.2 ± 2.8
348.15 K, x1 = 0.1008	1015.2 ± 1.1	2.46 ± 0.25
348.15 K, x1 = 0.2083	1033.6 ± 1.1	4.38 ± 0.44
348.15 K, x1 = 0.3171	1039 ± 1	5.79 ± 0.58
348.15 K, x1 = 0.4126	1040.1 ± 1.1	7.52 ± 0.76
348.15 K, x1 = 0.481	1040.1 ± 1.1	8.82 ± 0.89
348.15 K, x1 = 0.5857	1039.7 ± 1.2	11.4 ± 1.1
348.15 K, x1 = 0.6728	1039 ± 1.3	14.6 ± 1.5
348.15 K, x1 = 0.766	1037.6 ± 1.5	17.3 ± 1.8
348.15 K, x1 = 0.8963	1036.7 ± 1.8	22.4 ± 2.3
